Laboratory results: publication PMC7531004, “Discovery of gramicidin A analogues with altered activities by multidimensional screening of a one-bead-one-compound library” (Nature Communications, 2020)
Where “and” joins values, the source holds several entries; their conditions need not be identical. Equal entries are not always repeated. Where two headings read alike, the source gives them in different places. Where a SMILES comes first, the peptide text is derived from it. [ ]: non-standard residue; d: D form. The star is where a group is joined. NHCH2CH2OH = OCCN*; For = O=C*

How the values were obtained:
[1] = H+/Na+ transport assay of purified peptides; conditions: for Supplementary Figure 5 dose-response value (H+/Na+ transport): three replicate lines
rabbit red blood cells = conditions: red cells of rabbit, 2 h
Description: Second, we examined the cytotoxicity toward mammalian cancer cells and hemolytic activity of 1. […] Hemolytic activity was evaluated by monitoring hemoglobin leakage from rabbit red blood cells as a consequence of membrane damage. The concentration of 1 required to cause 10% hemoglobin leakage (HC10) was 160 nM. Thus, the P388 cytotoxicity of 1 was 28-fold more sensitive than its hemolytic activity.
Hemolysis assay of purified peptides. […]
with DMSO to various concentrations as 3-fold serial dilution. A 50% suspension of rabbit blood in Alsever's solution was obtained from Nippon Bio -Supp. Center . The blood suspension (250 µL) w as diluted with phosphate buffered saline (no calcium, no magnesium, 1.00 mL). The resultant suspension was centrifuged at 1000 × g for 3 min at 8 °C. The supernatant was discarded, and the collected cells were resuspended in phosphate buffered saline (no calcium, no magnesium, 1.00 mL). The same procedure was repeated (× 3). The resultant suspension (100 µL) was diluted with phosphate buffered saline (no calcium, no magnesium, 4.90 mL) to give 0.2% red blood cells suspension. The 0.2% red blood cells suspension (95.0 µL) and each dilution series of the purified peptide in DMSO (5 .0 µL) were mixed in 2 mL microtube.
supernatant was transferred to a 96-well plate (TR5003, TrueLine). The absorbance of each well at 415 nm was measured using a Thermo Scientific Multiskan GO (Thermo Fisher Scientific). The mixture of Triton X-100/H2O (5/95, 2.0 µL), DMSO (5.0 µL), and the 0.2% red blood cells suspension (95.0 µL) was used to determine 100% hemolysis. The mixture of DMSO (5.0 µL) and the 0.2% red blood cells suspension (95.0 µL) was used to determine 0% hemolysis. The hemolytic activities of tested peptides ( I) were normalized against 100% hemolysis by Triton X -100 (Imax) and 0% hemolysis by DMSO (I0) according to Supplementary Equation 3, where Ix is the UV absorbance.
I = 100 × (Ix – I0) / (Imax – I0) (3)
The hemolytic activities of the purified peptides were evaluated as the concentrations causing 10% hemolysis (HC10, nM) by means of three replicates. Sigmoidal curve fittings were performed on GraphPad Prism (GraphPad software, Supplementary Figure 7).

[2] = test system: MSSA1 (methicillin-susceptible Staphylococcus aureus); type: cell-based
Description: (§1) Evaluation of antibacterial spectra of purified peptides. The MIC assay was performed according to the Clinical and Laboratory Standards Institute protocols. The antibacterial activities of the purified peptides A1, B01–B04, B11–B13, B21, and B22 were measured using the broth microdilution method. 6 Serial dilutions of the peptides were prepared in cation adjusted Mueller Hinton Broth. Each dilution (100 µL) was dispensed to each well of the round-bottom plate to obtain final concentrations ranging from 64 µg/mL to 0.00024 µg/mL. Bacteria were grown at 37 °C overnight on Tryptic Soy Broth or Mueller Hinton Broth agar plates.
(§2) The bacterial colonies were suspended in 0.9% saline to obtain OD 625 of 0.08–0.13 using a spectrophotometer UV-1280 (Shimadzu). The resultant suspension was diluted with cation adjusted Mueller Hinton Broth (1/20). The resultant mixture (10 .0 µL) was inoculated to each well of the plates (approximately 5 × 10^4 CFU/well), mixed, and incubated at 37 °C for 18–24 h. The MIC value was determined as the minimum concentration that inhibited growth of bacteria. For Streptococcus species, cation adjusted Mueller Hinton Broth supplemented with 5% laked horse blood was used. […]

[3] = test system: Streptococcus agalactiae JCM5671; conditions: for Antibacterial activity MIC: JCM5671; for antibacterial activity/MIC: S. agalactiae
Description: (§3) Third, 1 was subjected to five pathogenic Gram-positive bacteria.
as §1, §2

[4] = test system: Streptococcus pyogenes SSI-9; conditions: for antibacterial activity/MIC: S. pyogenes; for Antibacterial activity MIC: SSI-9
Description: as §3, §1, §2

[5] = test system: Listeria monocytogenes 10403S; conditions: for Antibacterial activity MIC: 10403S; for antibacterial activity/MIC: L. monocytogenes
Description: as §3, §1, §2

[6] = test system: Enterococcus faecalis JCM5803; conditions: for antibacterial activity/MIC: E. faecalis; for Antibacterial activity MIC: JCM5803
Description: as §3, §1, §2

[7] = test system: Streptococcus pneumoniae NBRC 102642; conditions: for Antibacterial activity MIC: NBRC 102642; for antibacterial activity/MIC: S. pneumoniae
Description: as §3, §1, §2

[8] = read-out: EC50, H+/Na+ transport assay, 1st experiment
[9] = read-out: EC50, H+/Na+ transport assay, 2nd experiment
[10] = read-out: EC50, H+/Na+ transport assay, 3rd experiment
[11] = read-out: H+/Na+ transport activity EC50, EYPC/EYPG (19:1) LUVs
[12] = read-out: H+/Na+ transport activity/EC50, mean ± SD of three independent experiments

Compound | Supplementary Figure 5 dose-response value (H+/Na+ transport) ([1]; concentration 0.000512 nM) | Supplementary Figure 5 dose-response value (H+/Na+ transport) ([1]; concentration 0.00256 nM) | Supplementary Figure 5 dose-response value (H+/Na+ transport) ([1]; concentration 0.0128 nM) | Supplementary Figure 5 dose-response value (H+/Na+ transport) ([1]; concentration 0.064 nM) | Supplementary Figure 5 dose-response value (H+/Na+ transport) ([1]; concentration 0.32 nM) | Supplementary Figure 5 dose-response value (H+/Na+ transport) ([1]; concentration 1.6 nM) | Supplementary Figure 5 dose-response value (H+/Na+ transport) ([1]; concentration 8 nM) | Supplementary Figure 5 dose-response value (H+/Na+ transport) ([1]; concentration 40 nM) | Supplementary Figure 5 dose-response value (H+/Na+ transport) ([1]; concentration 200 nM) | Supplementary Figure 5 dose-response value (H+/Na+ transport) ([1]; concentration 1000 nM) | Supplementary Figure 5 dose-response value (H+/Na+ transport) ([1]; concentration 5000 nM) | EC50 [1, 8] | EC50 [1, 9] | EC50 [1, 10] | EC50 [1, 11] | EC50 [1, 12] | Hemolytic activity HC10 (concentration causing 10% hemolysis) (rabbit red blood cells) | antibacterial activity/MIC [2] | Antibacterial activity MIC [3] | antibacterial activity/MIC [3] | further results
CC(C)C[C@@H](NC(=O)[C@H](Cc1c[nH]c2ccccc12)NC(=O)[C@H](NC(=O)[C@@H](NC(=O)[C@H](NC(=O)[C@H](C)NC(=O)[C@H](NC(=O)[C@H](C)NC(=O)CNC(=O)[C@@H](NC=O)C(C)C)C(C)C)C(C)C)C(C)C)C(C)C)C(=O)N[C@@H](Cc1c[nH]c2ccccc12)C(=O)N[C@@H](C(=O)N[C@@H](Cc1c[nH]c2ccccc12)C(=O)N[C@@H](C(=O)N[C@@H](Cc1c[nH]c2ccccc12)C(=O)NCCO)C(C)C)C(C)C [B01] (For-VGA[dV]A[dV]V[dV]W[dL]W[dV]W[dV]W-NHCH2CH2OH) | 1.909 and 4.796 and 3.187 | 2.582 and 3.582 and 5.168 | 3.806 and 6.172 and 6.274 | 6.1 and 7.567 and 7.349 | 11.2834 and 14.5673 and 12.3484 | 32.2794 and 31.2161 and 30.2392 | 59.2885 and 57.8145 and 59.5121 | 71.8328 and 71.2991 and 68.3245 | 69.4784 and 69.9514 and 71.5477 | 71.9268 and 73.661 and 73.9278 | 81.6644 and 79.4929 and 76.8567 | 2.67 nM | 1.67 nM | 2.49 nM | 2.3 nM | 2.28 ± 0.54 nM | 1100 nM | 16 µg/mL | 8.7 µM | 16 µg/mL | antibacterial activity/MIC [4]: 0.03 µg/mL; Antibacterial activity MIC [4]: 0.016 µM; Antibacterial activity MIC [5]: 4.3 µM; antibacterial activity/MIC [5]: 8 µg/mL; antibacterial activity/MIC [6]: 0.5 µg/mL; Antibacterial activity MIC [6]: 0.27 µM; Antibacterial activity MIC [7]: 0.0021 µM; antibacterial activity/MIC [7]: 0.0039 µg/mL
CC(C)C[C@@H](NC(=O)[C@H](C)NC(=O)[C@H](NC(=O)[C@H](C)NC(=O)CNC(=O)[C@@H](NC=O)C(C)C)C(C)C)C(=O)N[C@H](C(=O)N[C@@H](C(=O)N[C@@H](Cc1c[nH]c2ccccc12)C(=O)N[C@@H](C(=O)N[C@@H](Cc1c[nH]c2ccccc12)C(=O)N[C@H](CC(C)C)C(=O)N[C@@H](Cc1c[nH]c2ccccc12)C(=O)N[C@H](CC(C)C)C(=O)N[C@@H](Cc1c[nH]c2ccccc12)C(=O)NCCO)C(C)C)C(C)C)C(C)C [B02] (For-VGA[dV]A[dL]V[dV]W[dV]W[dL]W[dL]W-NHCH2CH2OH) | 0.2643 and 0.7827 and 0.1241 | 2.146 and 0.0547 and 1.671 | 4.163 and 0.6112 and 1.64 | 7.246 and 2.883 and 3.652 | 11.0985 and 10.392 and 10.3413 | 29.1914 and 27.2825 and 29.9486 | 56.3118 and 49.6431 and 51.0872 | 73.3306 and 69.0608 and 69.1921 | 73.6961 and 72.6071 and 72.9778 | 75.3536 and 79.2012 and 75.9728 | 75.4417 and 72.7674 and 77.9824 | 3.08 nM | 1.68 nM | 5.38 nM | 3.4 nM | 3.38 ± 1.87 nM | 1400 nM | 32 µg/mL | 8.6 µM | 16 µg/mL | antibacterial activity/MIC [4]: 0.13 µg/mL; Antibacterial activity MIC [4]: 0.067 µM; Antibacterial activity MIC [5]: 2.1 µM; antibacterial activity/MIC [5]: 4 µg/mL; antibacterial activity/MIC [6]: 0.25 µg/mL; Antibacterial activity MIC [6]: 0.13 µM; Antibacterial activity MIC [7]: 0.0083 µM; antibacterial activity/MIC [7]: 0.016 µg/mL
CC(C)C[C@@H](NC(=O)[C@H](C)NC(=O)CNC(=O)[C@@H](NC=O)C(C)C)C(=O)N[C@@H](C)C(=O)N[C@@H](C(=O)N[C@H](C(=O)N[C@@H](C(=O)N[C@@H](Cc1c[nH]c2ccccc12)C(=O)N[C@@H](C(=O)N[C@@H](Cc1c[nH]c2ccccc12)C(=O)N[C@@H](C(=O)N[C@@H](Cc1c[nH]c2ccccc12)C(=O)N[C@@H](C(=O)N[C@@H](Cc1c[nH]c2ccccc12)C(=O)NCCO)C(C)C)C(C)C)C(C)C)C(C)C)C(C)C)C(C)C [B03] (For-VGA[dL]A[dV]V[dV]W[dV]W[dV]W[dV]W-NHCH2CH2OH) | 3.426 and 4.542 and 4.454 | 4.063 and 4.369 and 6.1349 | 8.086 and 3.88 and 7.199 | 11.12 and 10.2864 and 11.0165 | 19.1274 and 20.4439 and 18.4811 | 44.4719 and 42.2282 and 45.2028 | 70.1046 and 68.0194 and 61.5034 | 68.5122 and 68.0449 and 67.6654 | 74.8622 and 71.9344 and 68.9589 | 72.6177 and 71.4474 and 69.5798 | 79.6141 and 83.2523 and 73.0858 | 1.77 nM | 1.01 nM | 1.18 nM | 1.3 nM | 1.32 ± 0.4 nM | 2000 nM | 32 µg/mL | 17 µM | 32 µg/mL | antibacterial activity/MIC [4]: 0.13 µg/mL; Antibacterial activity MIC [4]: 0.068 µM; Antibacterial activity MIC [5]: 4.3 µM; antibacterial activity/MIC [5]: 8 µg/mL; antibacterial activity/MIC [6]: 1 µg/mL; Antibacterial activity MIC [6]: 0.54 µM; Antibacterial activity MIC [7]: 0.0042 µM; antibacterial activity/MIC [7]: 0.0078 µg/mL
